From patent US20250381165A1, “Method of Use for Benzofuran Compounds” (Tampa Bay Research Institute, Inc., priority 2024, published 2025) come the findings set out here.

The structures appear in SMILES notation. “Also recorded” adds a separate entry of the source.

Series [1] concerns RAW 264.7. The experiment in a line: CellTiter-Glo cell viability, RAW 264.7. The series is classed as cell-based, murine. The settings on record: Mus musculus, RAW264.7. As for the experimental part: (§1) BzFβ was then examined for its effect on the viability of several murine and human cell lines and primary murine splenocytes. The cytotoxicity of BzFβ was assessed using the CellTiter-Glo […] assay system according to manufacturer's instructions to determine BzFβ's effect on the viability of several murine and human cell lines and primary murine splenocytes.
(§2) DC2.4 cell line (Dr. Kenneth Rock, University of Massachusetts), RAW 264.7 cell line (American Type Culture Collection (ATCC), Manassas, VA; TIB 71), and IMG cell line (Millipore™, Merck KGaA, Burlington, MA; cat. no. SC-C134) were each cultured in complete Dulbecco's Modified Eagle Medium (cDMEM) containing […] glucose (Gibco™, Thermo Fisher Scientific Inc., Waltham, MA; cat. no. 10566-016) and supplemented with GlutaMAX, 50 U/mL penicillin and 50 µg/mL streptomycin (Gibco™; cat. no. 15070-063) and 10% heat inactivated fetal bovine serum (FBS) (R&D Systems, Inc., Minneapolis, MN; cat. no. […]
(§3) The cytotoxicity of BzFβ was assessed using the CellTiter-Glo cell […] viability assay system […] cat. no. […] CellTiter-Glo was added 1:1 in the media and the level of chemiluminescence was measured using luminescence at wavelengths of 200 nm to 700 nm through a photomultiplier on BioTek's Synergy HTX multimode microplate reader. […]
A general note: ATP-based viability assays read luminescence as a measure of living cells.

For series [2], the target named is T1, H-2Db on DC2.4 (Mus musculus, UniProt P01899).
T1 construct: DC2.4 are a C57Bl/6 lineage murine cell line and as such they express MHC class I H-2Kb and H-2Db; endogenous in cells; host or cells: DC2.4
Briefly: FITC-labeled HPV peptide RAHYNIVTF binding to DC2.4. The series is classed as cell-based, murine. Conditions: 25 µg/mL BzFβ 4 or 24 h, 1 h pulse. How it is done:
For peptide loading studies, cultured cells were treated for various times as indicated in results and figure legends. Cells were centrifuged and washed using cold FACS buffer (DPBS with 5% FBS, 2 mM EDTA, 0.1% sodium azide). Cells were blocked using Fc block (bioLegend™; cat. no. 101320) for 10 min to 15 min to inhibit non-specific binding, followed by staining with fluorophore-conjugated antibody PE-labeled anti-MHC I/SIINFEKL (clone 25-D1.16, Invitrogen 12-5743-82), for 30 min at 4° C. For N-terminal FITC labeled H-2Db peptide RAHYNIVTF (AnaSpec Inc., Fremont, CA; cat. no.) cells were incubated with peptide for 1-4 h before washing and analysis. After washing, the cells were subjected to flow cytometric analysis with the Attune NxT Flow Cytometer (Invitrogen™). Cells were gated based on live single-cell populations and positives were assessed using isotype controls and fluor-minus-one analysis when needed. Data were analyzed using the Attune NxT software or FlowJo versions 10.7 and 10.8.
Cells were cultured as previously described and treated for various times as indicated in results and figure legends. […] Cells were gated based on live single-cell populations and positives were assessed using isotype controls and fluor-minus-one analysis when needed. Data were analyzed using the Attune NxT software or FlowJo versions 10.7 and 10.8. […]

Series [3] has as its system freshly isolated murine splenocytes. Briefly: CellTiter-Glo cell viability, primary splenocytes. It is filed as cell-based. As for the experimental part: as §1
Six- to ten-week-old female C57BL/6NCrl mice (Charles River Laboratories, Wilmington, MA; cat. no. 027) were maintained in accord with the NIH Guide for the Care and Use of Laboratory Animals. Mice were maintained in an INOVIVE individually ventilated cage system with 3 mice per cage containing 100% virgin wood pulp bedding (Harlan Teklad™, Inotiv Inc., West Lafayette, IN; cat. no. 7099). Water and food (Harlan Teklad™, Inotiv Inc., West Lafayette, IN; cat. no. 8640) were available ad libitum. […] The cell count was determined using the MUSE cell viability kit (MCH600103) and MUSE Cell Analyzer (Luminex Corp, Austin TX). […]
as §3

In series [4] the test system is HEK293T. Briefly: CellTiter-Glo cell viability, HEK293T. It is filed as cell-based. Conditions: Homo sapiens, HEK-293T. As for the experimental part:
as §1, §2, §3

T1 sequence (P01899 25-362): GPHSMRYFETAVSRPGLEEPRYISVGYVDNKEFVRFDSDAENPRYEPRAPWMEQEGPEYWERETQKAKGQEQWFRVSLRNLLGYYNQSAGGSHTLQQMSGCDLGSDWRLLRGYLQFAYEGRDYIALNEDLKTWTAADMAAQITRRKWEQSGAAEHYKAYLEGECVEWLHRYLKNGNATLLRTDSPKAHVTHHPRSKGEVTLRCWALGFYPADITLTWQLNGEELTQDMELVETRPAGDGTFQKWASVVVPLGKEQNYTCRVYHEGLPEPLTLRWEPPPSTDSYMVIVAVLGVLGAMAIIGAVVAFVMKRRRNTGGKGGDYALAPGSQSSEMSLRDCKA
T1 sequence (P01887 21-119 partner): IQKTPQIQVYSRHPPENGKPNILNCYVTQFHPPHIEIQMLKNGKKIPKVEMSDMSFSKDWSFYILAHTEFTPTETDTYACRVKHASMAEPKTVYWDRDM

As a reminder, the IC50 is the concentration that inhibits the measured activity by half. As to `O=C(O)/C=C/c1ccc2occc2c1` [BzFβ, (2E)-3-(1-benzofuran-5-yl)prop-2-enoic acid], the IC50 in series [1] is 783 µM; in series [3] (Mus musculus, Splenocyte, freshly isolated murine splenocytes, CellTiter-Glo), 402 µM; in series [4] it was 432 µM. The “binding of FITC labeled HPV peptide to H-2Db” value in series [2] was “enhance peptide binding on both haplotypes; also recorded: significant increase in peptide binding”. Further, the “viability of primary murine splenocytes” value in series [3] (concentrations below 50 µg/mL) is recorded as “minimally affected”.
